Consider 15 compounds from patent US5955501A, “Protein kinase C modulators O” (priority 1995, dated 1999).

Some results are limits rather than exact numbers.

In assay [1] the test system is phorbol 12-myristate 13-acetate induced ear inflammation/erythema. Nature of the assay: Mouse ear inflammation test: inhibition of phorbol 12-myristate 13-acetate induced inflammation/erythema. The format is in vivo, mice. As for the experimental part: Method: A stock solution of 300 pmoles of the standard inflammatory compound phorbol 12-myristate 13-acetate per 5 μL acetone was prepared. This solution was used to prepare four-fold dilutions of 20-deoxy-20-(2'-hydroxyethylthio)phorbol 12-myristate 13-acetate, prepared as in Example 3, covering concentrations of the latter ranging from 4 to 64,000 pmoles per 5 μL.

Assay [2] deals with HL-60 promyelocytic leukemia cells. Put plainly: Anti-leukemic activity: MTT cell growth assay. In kind it is cell-based. The conditions noted are these: Homo sapiens, HL-60, 192 h, 8 days incubation, read-out: IC50 (drug concentration which leads to 50% of cells per well compared to control cultures). As for the experimental part: HL-60 promyelocytic leukemia cells were cultured in RPMI 1640 medium supplemented with 10% fetal bovine serum. Cells (7,500) were seeded into 96-well microtiter plates and incubated overnight. Serial dilutions of 20-deoxy-20-(2'-hydroxyethylthio)phorbol 12-myristate 13-acetate (dissolved in DMSo and then diluted with culture medium) were added to the wells on day 1. The plates were incubated for 8 days to allow the control cultures to undergo at least 3 cell divisions. The cell growth was monitored by using the calorimetric MTT (tetrazolium) assay [Mosmann, T., J. Immunol. Meth. 65: 55-63 (1983)]. After the incubation period, the cells were washed with phosphate-buffered saline in the microtiter plate. DMSO was then added to each well and the dish was put on a shaker for 20 min. The optical density was measured at 540 nm and compared using the formula:(OD Test OD Start)/(OD Control - OD Start) x 100.

The subject of assay [3] is T-24 human bladder carcinoma cells. Nature of the assay: Anti-cancer activity: methylene blue cell growth assay. In kind it is cell-based. Conditions: 5-6 days incubation, methylene blue staining, read-out: IC50 (drug concentration which leads to 50% of cells per well compared to control cultures). The method, then: T-24 human bladder carcinoma cells were cultured in Eagle's minimal essential medium supplemented with 5% fetal bovine serum. Cells (1,000) were seeded into 96-well microtiter plates and incubated overnight. Serial dilutions of 20-deoxy-20(2'-hydroxyethylthio)phorbol 12-myristate 13-acetate (dissolved in DMSO and then diluted with culture medium) were added to the wells on day 1. The plates were incubated for 5-6 days to allow the control cultures to undergo at least 3 cell divisions. After the incubation period, the cells were fixed with glutaraldehyde, washed with water and stained with 0.05% methylene blue. After washing the dye was eluted with 3% HCl. The optical density per well was measured at 665 nm and compared using the formula:(OD Test-OD Start)/(OD Control-OD Start)×100.

For the next assay, the system named is HIV. Nature of the assay: Anti-HIV activity in HIV-infected human peripheral blood lymphocytes (supernatant viral RNA and p24 core protein). The format is cell-based. Conditions: for EC50: Human immunodeficiency virus 1, Lymphocyte, from dose-response curves or by estimation from one or more experimental drug concentrations, read-out: anti-HIV ED50 for RNA; for percent inhibition of viral RNA production: at 10 μM. As for the experimental part: Human peripheral blood lymphocytes were isolated from the buffy coat fractions of blood donations. The lymphocytes were then stimulated with 5 μg/ml of phytohemagglutinin for 48 hours. Prior to infection with HIV, the lymphocytes were washed and resuspended in mitogen-free medium. On day 0 the cells were infected with HIV and were cultured for four days in the presence or absence of graded concentrations of 20-deoxy-20-chlorophorbol 12,13-bis[(2',4'-difluorophenyl)acetate]. On days 3 and 4 the supernatant levels of total viral RNA and viral core protein p24 were determined at each drug concentration and dose-response curves were used to determine the concentration of drug giving 50% inhibition of production of viral RNA and of p24 core protein. At four days these ED50 values were less than 100 pM for both RNA and p24.
In a manner similar to Example 111, the anti-HIV ED50 values for RNA [drug concentration is in brackets] for the following diterpenoid compounds were determined from dose-response curves or by estimation from one or more experimental drug concentrations.
In a manner similar to Example 111, the anti-HIV ED50 values for RNA [drug concentration is in brackets] for the following indolactam-type compounds were determined from dose-response curves or by estimation from one or more experimental drug concentrations, data giving percent inhibition of viral RNA production at selected concentrations appear in parentheses:
In a manner similar to Example 111, the anti-HIV ED50 values for RNA [drug concentration is in brackets] for the following diacylglycero-type compounds were determined from dose-response curves or by estimation from one or more experimental drug concentrations; data giving percent inhibition of viral RNA production at selected concentrations appear in parentheses: […]

Another assay concerns diacylglycerol site. Nature of the assay: Diacylglycerol site binding activity (test not described at the place).
Assay [4] in a line: Anti-viral properties (test not described at the place).
Assay [5] has as its system diacylglycerol/phorboid-type binding sites in mouse skin and in purified preparations of protein kinase C isotypes. Conditions: Dunn and Blumberg; Ryves et al. 1991; cited from earlier work.
For assay [6], the system named is Human RPMI-7272 melanoma cells. Nature of the assay: Anti-melanoma activity: inhibition of cell doublings. In kind it is cell-based. The conditions noted are these: 72 h of exposure, read-out: ID50 (concentration of drug required to inhibit cell doublings by 50%). The method, then:
Human RPMI-7272 melanoma cells were grown in the standard culture medium under normal incubation conditions. On day 1 the cells were cultured in the absence (control) or presence of graded concentrations (3-100 μg/ml) of 20-deoxy-20-(2'-hydroxyethylthio)phorbol 12-myristate 13-acetate in separate tubes. On day 4 after 72 h of exposure the number of cells in each tube was measured and the number of cell doublings determined. The drug treated tubes were compared to the control tube.

As for `C=C1C[C@]2(O)C(=O)C(C)=C[C@H]2[C@@]2(O)[C@H](C)[C@@H](OC(=O)CCCCCCCCCCCCC)[C@]3(OC(C)=O)[C@H]([C@@H]2C1CO)C3(C)C` (stereo partly drawn) [12-β-myristoyloxy-13-acetoxy-4,9-dihydroxy-7-hydroxymethyl-1,6(20)-tigliadien-3-one], the anti-inflammatory activity entry in assay [1] (general statement in the description, test not named there) is on record as “good anti-inflammatory activity”. Also, the IC50 amounted to 5.2 µM in assay [2] and 5.5 µM in assay [3]. As for `CCCCCCCCCCCCCC(=O)O[C@@H]1[C@@H](C)[C@@]2(O)[C@@H](C=C(CC#N)C[C@]3(O)C(=O)C(C)=C[C@@H]23)[C@@H]2C(C)(C)[C@]12OC(C)=O` [20-deoxy-20-cyanophorbol 12-myristate 13-acetate], the EC50 in the assay on HIV was 1.5 µM. Besides, the IC50 in assay [3] turned out to be 2 µM.

Turning to `CCCCCCCCCCCCCC(=O)O[C@@H]1[C@@H](C)[C@@]2(O)[C@@H](C=C(CCC3=C[C@H]4[C@@H]5C(C)(C)[C@]5(OC(C)=O)[C@H](OC(=O)CCCCCCCCCCCCC)[C@@H](C)[C@]4(O)[C@@H]4C=C(C)C(=O)[C@@]4(O)C3)C[C@]3(O)C(=O)C(C)=C[C@@H]23)[C@@H]2C(C)(C)[C@]12OC(C)=O` [20-Deoxy-20-[20'-deoxyphorbol-20'-yl(12'-myristate 13'-acetate)]phorbol 12-Myristate 13-Acetate], the “diacylglycerol site binding activity” value with diacylglycerol site is on record as “still exhibits diacylglycerol site binding activity”. Also, the anti-viral properties entry in assay [4] is recorded as “anti-viral properties”.

On to `CCCC(=O)O[C@@H]1[C@@H](C)[C@@]2(O)[C@@H](C=C(CO)C[C@]3(O)C(=O)C(C)=C[C@@H]23)[C@@H]2C(C)(C)[C@]12OC(=O)CCC` [phorbol 12,13-dibutyrate], for which the “selectivity factor in dissociation constant among the different binding sites” value in assay [5] is given as 10-1000. As for `CCCCCCCCCCCCCC(=O)O[C@@H]1[C@@H](C)[C@@]2(O)[C@@H](C=C(COC(=O)NC)C[C@]3(O)C(=O)C(C)=C[C@@H]23)[C@@H]2C(C)(C)[C@]12OC(C)=O` [phorbol 12-myristate 13-acetate 20-methylcarbamate], the figures for the IC50 in assay [2] and in assay [3] were 2.6 µM and 6.3 µM, respectively. `CC1=C[C@H]2[C@@]3(O)[C@H](C)C[C@]4(OC(=O)C(C)C)[C@H]([C@@H]3C=C(CO)C[C@]2(O)C1=O)C4(C)C` [12-deoxyphorbol 13-isobutyrate]: the “selectivity factor in dissociation constant among the different binding sites” value in assay [5] was 10-1000. `CC1=C[C@H]2[C@@]3(O)[C@H](C)C[C@]4(OC(=O)Cc5ccccc5)[C@H]([C@@H]3C=C(CO)C[C@]2(O)C1=O)C4(C)C` [12-deoxyphorbol 13-phenylacetate]: the “selectivity factor in dissociation constant among the different binding sites” value in assay [5] was 10-1000. As for `CC1=C[C@H]2[C@@]3(O)[C@H](C)[C@@H](OC(=O)Cc4c(F)c(F)c(F)c(F)c4F)[C@]4(OC(=O)Cc5c(F)c(F)c(F)c(F)c5F)[C@H]([C@@H]3C=C(CCl)C[C@]2(O)C1=O)C4(C)C` [20-deoxy-20-chlorophorbol 12,13-bis[(pentafluorophenyl)acetate]], the EC50 with HIV was < 0.001 µM. “9-Deshydroxymethyl-9-[N-(2',3'-dihydroxy)propyl]carboxamidoindolactam V”: the “percent inhibition of viral RNA production” value in the assay on HIV is given as 22%. Take thymeleatoxin: the “selectivity factor in dissociation constant among the different binding sites” value in assay [5] is reported as 10-1000.

With “9-deshydroxymethyl-9-[N-(2'-glucosyl)]carboxamidoindolactam V”, in the assay on HIV, the “percent inhibition of viral RNA production” value is given as 35%. With `CC1=C[C@H]2[C@@]3(O)[C@H](C)[C@@H](OC(=O)Cc4ccc(F)cc4F)[C@]4(OC(=O)Cc5ccc(F)cc5F)[C@H]([C@@H]3C=C(CN=[N+]=[N-])C[C@]2(O)C1=O)C4(C)C` [20-deoxy-20-azidophorbol 12,13-bis[(2',4'-difluorophenyl)acetate]], the EC50 with HIV was 0.065 µM.

With `CCCCCCCCCCCCCC(=O)O[C@@H]1[C@@H](C)[C@@]2(O)[C@@H](C=C(CSCCO)C[C@]3(O)C(=O)C(C)=C[C@@H]23)[C@@H]2C(C)(C)[C@]12OC(C)=O` [20-deoxy-20-(2'-hydroxyethylthio)phorbol 12-myristate 13-acetate], the “inhibition of phorbol 12-myristate 13-acetate induced ear inflammation/erythema” value in assay [1] (applied with 300 pmoles phorbol 12-myristate 13-acetate per 5 μL acetone to inside of right ear, observed 1 to 48 hours) was “Inhibition of the phorbol 12-myristate 13-acetate induced inflammation was observed at the medium and higher concentrations”. Also, the IC50 in assay [6] was 42 µM; in assay [2] it was 5.4 µM; in assay [3], 13 µM.

Turning to `CC1=C[C@H]2[C@@]3(O)[C@H](C)[C@@H](OC(=O)Cc4ccc(F)cc4F)[C@]4(OC(=O)Cc5ccc(F)cc5F)[C@H]([C@@H]3C=C(CNc3cccc(CO)c3)C[C@]2(O)C1=O)C4(C)C` [20-deoxy-20-[(3'-hydroxymethylphenyl)amino]phorbol 12,13-bis[(2',4'-difluorophenyl)acetate]], the EC50 in the assay on HIV was 0.18 µM.

For the compound `CC1=C[C@H]2[C@@]3(O)[C@H](C)[C@@H](OC(=O)Cc4ccc(F)cc4F)[C@]4(OC(=O)Cc5ccc(F)cc5F)[C@H]([C@@H]3C=C(C=NO)C[C@]2(O)C1=O)C4(C)C` [20-deoxy-20-hydroximinophorbol 12,13-bis[(2',4'-difluorophenyl)acetate]], the EC50 with HIV was 5.5 µM.
